Among the data in BindingDB's records for doi:10.1097/00004424-198809001-00017 (Unit&Eacute, 1988) are Ki values, retold here.

Histamine H3 receptor, sequence (Q9JI35 whole entry): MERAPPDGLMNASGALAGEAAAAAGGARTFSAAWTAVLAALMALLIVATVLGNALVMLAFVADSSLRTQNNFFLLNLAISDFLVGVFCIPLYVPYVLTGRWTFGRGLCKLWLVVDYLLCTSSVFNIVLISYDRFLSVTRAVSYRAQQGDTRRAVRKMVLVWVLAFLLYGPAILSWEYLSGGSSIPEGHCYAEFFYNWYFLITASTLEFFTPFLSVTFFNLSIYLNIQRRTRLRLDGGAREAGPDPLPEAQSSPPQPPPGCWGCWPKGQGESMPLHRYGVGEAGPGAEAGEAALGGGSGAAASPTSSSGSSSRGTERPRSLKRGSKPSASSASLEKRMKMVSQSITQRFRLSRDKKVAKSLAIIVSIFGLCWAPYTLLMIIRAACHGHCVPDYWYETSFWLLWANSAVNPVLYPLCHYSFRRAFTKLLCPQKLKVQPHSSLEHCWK

One test has as its target Histamine H3 receptor (Cavia porcellus, UniProt Q9JI35).
`S=C(NC1CCCCC1)N1CCC(c2cnc[nH]2)CC1` yielded a Ki of 2 nM.

With `C[C@H](N)Cc1c[nH]cn1` [CAS_75614-93-6], the Ki amounted to 52 nM.

Regarding `c1ncc(CCN2CCCC2)[nH]1` [4-[2-(1-Pyrrolidinyl)ethyl]-imidazole], the Ki is 6 nM.

`NCCc1c[nH]cn1` [[3H]histamine] displayed a Ki of 100 nM.

Regarding `C[C@@H](N)Cc1c[nH]cn1`, the Ki turned out to be 813 nM.

For another test, the target named is Hrh3 protein (Rattus norvegicus, UniProt Q5PPG3).
Hrh3 protein, sequence (Q5PPG3 whole entry): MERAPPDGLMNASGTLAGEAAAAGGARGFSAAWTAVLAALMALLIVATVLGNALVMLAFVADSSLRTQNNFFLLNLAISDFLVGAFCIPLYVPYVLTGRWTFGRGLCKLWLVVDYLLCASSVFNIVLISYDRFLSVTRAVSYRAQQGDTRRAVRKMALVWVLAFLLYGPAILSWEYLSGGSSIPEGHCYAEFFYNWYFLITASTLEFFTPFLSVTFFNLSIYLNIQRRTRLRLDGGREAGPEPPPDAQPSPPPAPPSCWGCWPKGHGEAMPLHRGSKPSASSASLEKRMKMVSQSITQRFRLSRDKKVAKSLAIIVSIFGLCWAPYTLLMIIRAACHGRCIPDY
With `S=C(NC1CCCCC1)N1CCC(c2cnc[nH]2)CC1`, the Ki is 2.1 nM.

Regarding `C[C@H](N)Cc1c[nH]cn1` [CAS_75614-93-6], the affinity corresponds to a Ki of 11 nM.

Consider `NCCc1c[nH]cn1` [[3H]histamine], for which the Ki was determined as 100 nM.

By Ki is commonly meant the equilibrium dissociation constant of an inhibitor or competing ligand from its target.
